Results published in patent US20250281497A1, “FUSED AMINO PYRIMIDINE COMPOUNDS FOR TREATMENT OF SEIZURE DISORDERS” (Ovid Therapeutics Inc., priority 2024, published 2025).

How the values were obtained:
KA induced SE [1] = test: Kainic acid (KA) induced SE, EEG recording, pretreatment; format: in vivo, mice; details: mice pretreated with vehicle; DZ 10 mg/kg IP 2h after KA; pre 4.2±2.4×10^−6
Excerpt: This model was chosen due to the similarities with patients undergoing SE, as KA-induced seizures become refractory to benzodiazepines (BDZs) within minutes (Betjemann and Lowenstein, Lancet Neurol 14, 615-624 (2015); Crawshaw and Cock, (2020a) [Seizure: Eur. J. Epilep. 75 (2020) 145-152] Seizure 80, 282; Lee et at, 2022, supra; Reddy and Kuruba, Int J Mol Sci 14, 18284-18318 (2013)).
(§1) EEG recordings and analysis. WT C57Bl/6J adult male mice (12 weeks) were anesthetized with isofluorane and implanted with EEG/EMG electrodes and allowed to recover for 7 days prior to experimentation. […] 2h following KA administration mice were injected with a saturating concentration of diazepam (DZ) 10 mg/kg (IP) and recordings were extended for a further 60 min. […] LabChart 8 software was used for data analysis. Epileptiform activity was identified by changes in the amplitude of electrographic activity characterized by consistent changes in the power of the Fast Fourier transform (FFT) of the EEG and abnormal activity characterized by periods of rhythmic spiking lasting longer than 30s (Moore et al., 2017, supra; Silayeva et al., 2015, supra; Sivakumaran et al., J. Neurosci. 35, 8291-8296 (2015)).
To provide quantitative insights on the effects of KA, raw EEG recordings were subject to Fast-Fourier transformation (8K FFT size, Hann (cosine-bell), 87.50% window overlap) for frequencies between 0-100 Hz 2h after KA injection (Lee et at, 2022, supra).
30 or 60 min later mice were injected with KA (20 mg/kg) and 2h later with DZ as detailed above.

KA induced SE [2] = test: KA induced ongoing SE, EEG recording, treatment 2h after KA; format: in vivo, mice
Procedure: as §1
To evaluate the potential of KCC2 activators to terminate ongoing SE, the KA model described above was employed. Mice were injected with KA (20 mg/Kg; IP). […] Spectral data were then subjected to FFT and the total EEG power between 1-100 Hz of the 2h following KA treatment (pre-drug) and 30 min following their injection (post-drug) were compared (FIG. 6B). In mice treated with DZ alone variable effects were observed, from large increases to modest reductions in EEG power, but these effects were not significant (FIG. 6C; pre=1.1±0.2×10^−6, post=4.4±7.4×10^−7 μV^2, p=0.214, n=13-14 mice). […] The latency of the treatments to modify EEG power was examined by measuring the time taken for this parameter to be reduced to 50% (FIG. 6E). […] Finally in mice treated with DZ alone 62% were insensitive to the effects of this agent on EEG power.

Structure (SMILES): CN1C(=O)CN=C(c2ccccc2)c2cc(Cl)ccc21 [DZ, diazepam]
- total EEG power post DZ (KA induced SE [1]): 2.9±2.7×10^−6 μV^2
- total EEG power post-drug (KA induced SE [2]; 30 min after injection, given 2h after KA, DZ 10 mg/kg, Compound A 50 mg/Kg IP): 4.4±7.4×10^−7 μV^2
- mice insensitive to DZ effects on EEG power (KA induced SE [2]; treatment 2h after KA): 62%
